According to patent US20050054667A1, “Method of treating or inhibiting anti-arrhythmic events in male human patients” (Solvay Pharmaceuticals GmbH, priority 2003, published 2005):

Experiments:
human patients = assay: Clinical safety and tolerability of intravenous tedisamil (TdP, safety issues); format: in vivo
Protocol: (§1) Secondary efficacy objectives were to determine the percentage of human patients remaining in sinus rhythm at 2.5 hours after initiation of the intravenous infusion of tedisamil versus placebo; to determine the percentage of human patients remaining in sinus rhythm at 24 hours after initiation of the intravenous infusion of tedisamil versus placebo; to determine the time to conversion after the start of the infusion of tedisamil versus placebo; and to determine the dose- and plasma concentration-response relationships of tedisamil versus placebo. Safety objective: determining the safety and tolerability of tedisamil versus placebo.
Physical examination, ECG, 24-hour Holter monitoring, vital signs, laboratory evaluations and adverse events.

[1] = tested on: Subjects with Recent Onset Atrial Fibrillation or Flutter; assay: Phase III clinical study: rapid conversion to NSR by intravenous tedisamil sesquifumarate; format: in vivo, human; conditions: active ingredient tedisamil sesquifumarate
Protocol: This second clinical study in humans was a Multi-Center, Double-Blind, Randomized, Placebo-Controlled, Parallel Design Study to evaluate the Efficacy and Safety of Intravenous Tedisamil Sesquifumarate in the Rapid Conversion to Normal Sinus Rhythm in Subjects with Recent Onset Atrial Fibrillation or Flutter.
The active ingredient used was tedisamil sesqifumarate. […] Study duration: Screening: up to 48 hours; treatment (in-patient): single 30-minute infusion; safety follow up: 24 hours (in-patient) with continuous telemetry and 28 day safety follow up. […]

[2] = tested on: human patients with atrial fibrillation; assay: Phase II clinical study: conversion of recent onset atrial fibrillation to normal sinus rhythm (NSR) by intravenous tedisamil; format: in vivo; conditions: ITT sample, DC cardioversion excluded
Protocol: (§2) This first clinical study in humans was a Multi-Center, Double-Blind, Randomized, Placebo-Controlled, Sequential Ascending Dose Groups Study to evaluate the Efficacy and Safety of Intravenous Tedisamil in the Rapid Conversion to Normal Sinus Rhythm in Patients with Atrial Fibrillation or Flutter. The active ingredient used was tedisamil dihydrochloride. The study was designed as a phase II study and executed in 35 to 40 centers in 3 to 4 countries. Study duration: Screening: up to 48 hours; treatment (in-patient): single 30-minute infusion; safety follow up: 24 hours (in-patient) with continuous telemetry and 28 day safety follow up.
as §1
(§3) The following methodology for the study in humans was applied: A multi-center, double-blind, randomized, placebo-controlled, sequential ascending dose groups study to evaluate the efficacy and safety of intravenous tedisamil versus placebo. The study drug was infused over 30 minutes, receiving half the dose within 10 minutes and half the dose within the remaining 20 minutes The first patient group received 0.4 mg/kg of body weight, infused as 0.2 mg/kg of body weight within 10 minutes, continued with 0.2 mg/kg of body weight infused within 20 minutes. The next higher dose 0.6 mg/kg of body weight (0.3 mg/kg of body weight infused over 10 min, continued with 0.3 mg/kg of body weight infused over 20 minutes) was only administered after the initial dose has been assessed (blinded) and found to be safe. A third stage may be added with a higher dose. Tedisamil blood concentrations were assessed during the infusion (at 10 and 30 minutes), at conversion to normal sinus rhythm, at recurrence and 24 hours after start of infusion.
(§4) The criteria for patient inclusion in the study was atrial fibrillation or flutter with a duration of more than 3 hours and less than 48 hours, occurring as a first or recurrent episode.
(§5) • Tedisamil (0.4 mg/kg body weight) • Tedisamil (0.6 mg/kg body weight) Both dosages were given as an intravenous regimen. Reference Therapy, Dose and Mode of Administration:
(§6) The total infusion time is 30 minutes, with half the dose infused within 10 minutes, and half the dose infused within the remaining 20 minutes.
(§7) Primary efficacy: the percentage of human patients converted to normal sinus rhythm (for at least 60 seconds) at any time within 2.5 hours after the initiation of the infusion of study drug.
(§8) All efficacy variables were evaluated separately for human patients with atrial fibrillation and human patients with atrial flutter. Percentages of conversion were compared among treatment groups using a logistic regression model with factors for treatment group and center. Times to conversion were compared among treatment groups using a Cox proportional hazards model with factors for treatment group and center. Dose-response and concentration-response relationships were examined using descriptive statistics.

[3] = tested on: human patients with atrial flutter; assay: Phase II clinical study: conversion of atrial flutter to normal sinus rhythm (NSR) by intravenous tedisamil; format: in vivo; conditions: ITT sample, DC cardioversion excluded
Protocol: as §2, §1, §3, §4
• Tedisamil (0.4 mg/kg body weight) • Tedisamil (0.6 mg/kg body weight) Both dosages were given as an intravenous regimen. Reference Therapy, Dose and Mode of Administration: […]
All efficacy variables were evaluated separately for human patients with atrial fibrillation and human patients with atrial flutter. […]

[4] = tested on: Patients with Atrial Fibrillation or Flutter; assay: Phase II clinical study: conversion to NSR, overall (atrial fibrillation or flutter); format: in vivo, human; conditions: for Conversion to NSR at any time within 2.5 hrs after start of infusion: Overall (fibrillation + flutter), ITT sample, DC cardioversion excluded
Protocol: as §2, §1, §3, §4, §5, §6, §7, §8

[5] = female, 0.4 mg/kg i.v. 30-min infusion
[6] = female, 0.6 mg/kg i.v. 30-min infusion
[7] = male, 0.4 mg/kg i.v. 30-min infusion
[8] = male, 0.6 mg/kg i.v. 30-min infusion

SMILES: C1CCC2(C1)C1CN(CC3CC3)CC2CN(CC2CC2)C1 [Tedisamil, N,N′-dicyclopropyl-methyl-9,9-tetramethylen-3,7-diazabicyclo[3,3,1]nonane]
- Observed TdP (Torsade de Point), distribution by gender (human patients; 30 min infusion regimen): Almost all observed TdP (Torsade de Point) in 30 min regimen were in female human patients
- Safety issues, male vs female patients (human patients; First (Phase II) study): fewer safety issues than female human patients
- TdP in male human patients (human patients; high dosage on 0.72 in 3114 study): Only one human patient showed TdP
- Gender difference related to efficacy (conversion rate, male vs female patients) [1]: higher conversion rate compared to women
- Conversion to NSR at any time within 2.5 hrs after start of infusion [2, 5]: 6/17 (35.3%)
- Conversion to NSR at any time within 2.5 hrs after start of infusion [2, 6]: 6/16 (37.5%)
- Conversion to NSR at any time within 2.5 hrs after start of infusion ([2]; female, age <65 yrs, 0.4 mg/kg i.v.): 2/5 (40.0%)
- Conversion to NSR at any time within 2.5 hrs after start of infusion ([2]; female, age <65 yrs, 0.6 mg/kg i.v.): 1/3 (33.3%)
- Conversion to NSR at any time within 2.5 hrs after start of infusion ([2]; female, age >=65 yrs, 0.4 mg/kg i.v.): 4/12 (33.3%)
- Conversion to NSR at any time within 2.5 hrs after start of infusion ([2]; female, age >=65 yrs, 0.6 mg/kg i.v.): 5/13 (38.5%)
- Conversion to NSR at any time within 2.5 hrs after start of infusion [2, 7]: 18/35 (51.4%)
- Conversion to NSR at any time within 2.5 hrs after start of infusion [2, 8]: 18/26 (69.2%)
- Conversion to NSR at any time within 2.5 hrs after start of infusion ([2]; male, age <65 yrs, 0.4 mg/kg i.v.): 10/20 (50.0%)
- Conversion to NSR at any time within 2.5 hrs after start of infusion ([2]; male, age <65 yrs, 0.6 mg/kg i.v.): 13/18 (72.2%)
- Conversion to NSR at any time within 2.5 hrs after start of infusion ([2]; male, age >=65 yrs, 0.4 mg/kg i.v.): 8/15 (51.4%)
- Conversion to NSR at any time within 2.5 hrs after start of infusion ([2]; male, age >=65 yrs, 0.6 mg/kg i.v.): 5/8 (62.5%)
- Conversion to NSR at any time within 2.5 hrs after start of infusion (patients converted/total) ([3]; female, 0.4 mg/kg i.v. 30-min infusion, percentage not given): 0/2
- Conversion to NSR at any time within 2.5 hrs after start of infusion [3, 6]: 2/6 (33.3%)
- Conversion to NSR at any time within 2.5 hrs after start of infusion [3, 7]: 1/7 (14.3%)
- Conversion to NSR at any time within 2.5 hrs after start of infusion [3, 8]: 1/5 (20.0%)
- Effect of extension of infusion on conversion rates ([4]; Extension of infusion beyond the times indicated (30 minutes)): did not produce higher conversion rates
- Gender difference related to efficacy (conversion rate, male vs female patients) ([4]; First (Phase II) study, active ingredient tedisamil dihydrochloride): higher conversion rate compared to women
- Conversion to NSR at any time within 2.5 hrs after start of infusion [4, 5]: 6/19 (31.6%)
- Conversion to NSR at any time within 2.5 hrs after start of infusion [4, 6]: 8/22 (36.4%)
- Conversion to NSR at any time within 2.5 hrs after start of infusion [4, 7]: 19/42 (45.2%)
- Conversion to NSR at any time within 2.5 hrs after start of infusion [4, 8]: 19/31 (61.3%)
